Converted amounts (≈) assume the structure as drawn.
Test system: not listed separately
Experiment: Shake flask solubility measurement
Type: physicochemical
Settings: shake flask, buffer; shaken at 37° C. for 24 h
Procedure: Determination by Shake Flask Solubility Measurement
• Eluent A: 2 ml of diethylamine, for synthesis+1000 ml of methanol, LiChrosolv • Eluent B: 5 g of ammonium acetate, for analysis+5 ml of methanol, LiChrosolv+995 ml of ultrapure water Sample Solvent:
Buffer: 3.954 g of sodium dihydrogenphosphate monohydrate+6.024 g of sodium chloride+950 ml of ultrapure water the pH is adjusted using 0.1 M NaOH or 0.1 M HCl.
The samples are shaken at 37° C. and 450 rpm for 24 h.
After about 7 h, the pH of the samples is checked and adjusted if necessary. It is also checked whether the sample is still present in excess.
Just before the end of the 24 h shaking time, the samples are again checked for pH and a precipitate.

Structure (SMILES)	solubility [µg/mL]
CC(O)CNC(=O)c1cc(OC[C@H]2CCCN2c2ncnc3[nH]cnc23)c2ccccc2n1 (some centres unmarked)	325 (≈ 726 µM)
Clc1cccc(OC[C@H]2CCCN2c2ncnc3[nH]cnc23)c1Cl [6-[(R)-2-(2,3-dichlorophenoxymethyl)pyrrolidin-yl]-9H-purine, reference compound]	< 1

Same assay, conditions: sodium phosphate/sodium chloride buffer, aqueous buffer, thermodynamic from solid; buffer system at pH 7; shaken at 37° C. for 24 h

solubility at 24 h [µg/mL]	Structure (SMILES)
283 (≈ 580 µM)	c1ccc2c(OC[C@H]3CCCN3c3ncnc4[nH]cnc34)ccc(CNCCN3CCOCC3)c2c1 [(2-morpholin-4-ylethyl)-{4-[(R)-1-(9H-purin-6-yl)pyrrolidin-2-ylmethoxy]naphthalen-1-ylmethyl}amine]

Target: MetAP-2 (Homo sapiens, UniProt P50579)
Sequence (P50579 whole entry, species assumed): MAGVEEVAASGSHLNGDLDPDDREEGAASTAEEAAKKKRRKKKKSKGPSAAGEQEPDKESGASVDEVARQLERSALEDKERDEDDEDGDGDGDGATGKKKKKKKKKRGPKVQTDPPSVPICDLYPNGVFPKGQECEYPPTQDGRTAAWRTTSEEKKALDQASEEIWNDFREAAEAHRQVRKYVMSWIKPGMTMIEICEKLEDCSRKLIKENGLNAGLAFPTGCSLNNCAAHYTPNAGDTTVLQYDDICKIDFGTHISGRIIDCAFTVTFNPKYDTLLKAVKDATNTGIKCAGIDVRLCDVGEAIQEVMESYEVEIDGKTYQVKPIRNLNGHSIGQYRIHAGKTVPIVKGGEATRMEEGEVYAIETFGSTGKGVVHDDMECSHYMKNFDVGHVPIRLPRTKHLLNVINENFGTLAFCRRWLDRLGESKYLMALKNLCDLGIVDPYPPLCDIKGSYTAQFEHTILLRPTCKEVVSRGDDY
Experiment: MetAP-2 activity measurement (coupled enzymatic reactions, substrate Met-Arg-Ser, photometric at 450 nm)
Type: biochemical
Settings: read-out: IC50 enzyme (Inhibition of MetAP-2)
How it was run: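 Human MetAP-2 cleaves Met-Arg-Ser; the freed methionine is oxidized by L-amino acid oxidase, and the resulting H2O2 drives peroxidase oxidation of dianisidine, read continuously at 450 nm. Activity is taken as the slope in the visually linear region.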

Structure (SMILES)	IC50 [nM]
O=C(O)CC[C@H](NC(=O)O)C(=O)Nc1ccc2cccc(OC[C@H]3CCCN3c3ncnc4[nH]cnc34)c2c1 [A183, (S)-4-Carboxyamino-4-{8-[(R)-1-(9H-purin-6-yl)-pyrrolidin-2-ylmethoxy]naphthalen-2-yl-carbamoyl}butyric acid]	> 10000
CCOC(=O)c1c(OC[C@H]2CCCN2c2ncnc3[nH]cnc23)c2cc(F)ccc2n1C [A184, Ethyl 5-fIuoro-1-methyl-3-[(R)-1-(9H-purin-6-yl)-pyrrolidin-2-ylmethoxy]-1H-indole-2-carboxylate]	> 10000
CCOC(=O)Cn1c(C(=O)OCC)c(OC[C@H]2CCCN2c2ncnc3[nH]cnc23)c2cc(F)ccc21 [A185, Ethyl 1-ethoxycarbonylmethyl-5-fluoro-3-[(R)-1-(9H-purin-6-yl)pyrrolidin-2-ylmethoxy]-1H-indole-2-carboxylate]	> 10000
CC(C)(C)OC(=O)N[C@@H](CCC(N)=O)C(=O)N1CCc2cccc(OC[C@H]3CCCN3c3ncnc4[nH]cnc34)c2C1 [A187, tert-Butyl ((S)-3-carbamoyl-1-{8-[(R)-1-(9H-purin-6-yl)pyrrolidin-2-ylmethoxy]-3,4-dihydro-1H-isoquinoline-2-carbonyl}propyl)carbamate]	1000 to 10000
CC(C)(C)OC(=O)N[C@H](CC(N)=O)C(=O)N1CCc2cccc(OC[C@H]3CCCN3c3ncnc4[nH]cnc34)c2C1 [A188, tert-Butyl ((R)-1-carbamoylmethyl-2-oxo-2-{8-[(R)-1-(9H-purin-6-yl)pyrrolidin-2-ylmethoxy]-3,4-dihydro-1H-isoquinolin-2-yl}ethyl)carbamate]	1000 to 10000
CC(C)(C)OC(=O)N[C@@H](Cc1c[nH]cn1)C(=O)N1CCc2cccc(OC[C@H]3CCCN3c3ncnc4[nH]cnc34)c2C1 [A189, tert-Butyl ((S)-1-(1H-imidazol-4-ylmethyl)-2-oxo-2-{8-[(R)-1-(9H-purin-6-yl)pyrrolidin-2-yl-methoxy]-3,4-dihydro-1H-isoquinolin-2-yl}ethyl)-carbamate]	1000 to 10000
Cn1c(C(=O)O)c(OC[C@H]2CCCN2c2ncnc3[nH]cnc23)c2cc(F)ccc21 [A190, 5-Fluoro-1-methyl-3-[(R)-1-(9H-purin-6-yl)-pyrrolidin-2-ylmethoxy]-1H-indole-2-carboxylic acid]	> 10000
CC(C)(C)OC(=O)NCCCC[C@H](NC(=O)OCc1ccccc1)C(=O)N1CCc2cccc(OC[C@H]3CCCN3c3ncnc4[nH]cnc34)c2C1 [A193, tert-Butyl ((S)-5-benzyloxycarbonylamino-6-oxo-6-{8-[(R)-1-(9H-purin-6-yl)pyrrolidin-2-yl-methoxy]-3,4-dihydro-1H-isoquinolin-2-yl}hexyl)-carbamate]	> 10000
O=C(O)CCCCOc1ccc2cccc(OC[C@H]3CCCN3c3ncnc4[nH]cnc34)c2c1 [A196, 5-{8-[(R)-1-(9H-Purin-6-yl)pyrrolidin-2-yl-methoxy]naphthalen-2-yloxy}pentanoic acid]	> 10000
Cn1c(C(=O)NCc2ccc(F)cc2)c(OC[C@H]2CCCN2c2ncnc3[nH]cnc23)c2cc(F)ccc21 [A197, N-(4-Fluorobenzyl)-5-fluoro-1-methyl-3-[(R)-1-(9H-purin-6-yl)pyrrolidin-2-ylmethoxy]-1H-indole-2-carboxamide]	> 10000
Cn1c(C(=O)OCCc2ccc(F)cc2)c(OC[C@H]2CCCN2c2ncnc3[nH]cnc23)c2cc(F)ccc21 [A198, 2-(4-Fluorophenyl)ethyl 5-fluoro-1-methyl-3-[(R)-1-(9H-purin-6-yl)pyrrolidin-2-ylmethoxy]-1H-indole-2-carboxylate]	> 10000
NCCCC[C@H](NC(=O)OCc1ccccc1)C(=O)N1CCc2cccc(OC[C@H]3CCCN3c3ncnc4[nH]cnc34)c2C1 [A199, Benzyl ((S)-5-amino-1-{8-[(R)-1-(9H-purin-6-yl)-pyrrolidin-2-ylmethoxy]-3,4-dihydro-1H-isoquinolin-2-carbonyl}pentyl)carbamate]	1000 to 10000
O=C(Cn1c(C(=O)NCCc2ccc(F)cc2)c(OC[C@H]2CCCN2c2ncnc3[nH]cnc23)c2cc(F)ccc21)NCCc1ccc(F)cc1 [A200, N-[2-(4-Fluorophenyl)ethyl]-5-fluoro-1-{[2-(4-fluorophenyl)ethylcarbamoyl]methyl}-3-[(R)-1-(9H-purin-6-yl)pyrrolidin-2-ylmethoxy]-1H-indole-2-carboxamide]	> 10000
NC(=O)C[C@H](N)C(=O)N1CCc2cccc(OC[C@H]3CCCN3c3ncnc4[nH]cnc34)c2C1 [A201, (S)-3-Amino-4-oxo-4-{8-[(R)-1-(9H-purin-6-yl)-pyrrolidin-2-ylmethoxy]-3,4-dihydro-1H-isoquinolin-2-yl}butyramide]	1000 to 10000
NC(=O)CCC(=O)N1CCc2cccc(OC[C@H]3CCCN3c3ncnc4[nH]cnc34)c2C1 [A202, 4-Oxo-4-{8-[(R)-1-(9H-purin-6-yl)pyrrolidin-2-yl-methoxy]-3,4-dihydro-1H-isoquinolin-2-yl}-butyramide]	1000 to 10000
Fc1ccc(CCNCCn2cc(OC[C@H]3CCCN3c3ncnc4[nH]cnc34)c3cc(F)ccc32)cc1 [A203, [2-(4-Fluorophenyl)ethyl]-(2-{5-fluoro-3-[(R)-1-(9H-purin-6-yl)pyrrolidin-2-ylmethoxy]indol-1-yl}-ethyl)amine]	> 10000

Further lines, results first:

IC50 [nM]	Structure (SMILES)
10 to 1000	CN(C)C(=O)C[C@H]1CCc2c(OC[C@H]3CCCN3c3ncnc4[nH]cnc34)cccc2C1=O [A175, N,N-Dimethyl-2-{(R)-1-oxo-5-[(R)-1-(9H-purin-6-yl)pyrrolidin-2-ylmethoxy]-1,2,3,4-tetrahydro-naphthalen-2-yl}acetamide]
10 to 1000	CCNC(=O)CC1CCc2c(OC[C@H]3CCCN3c3ncnc4[nH]cnc34)cccc2C1=O (stereo partly drawn) [A176, N-Ethyl-2-{1-oxo-5-[(R)-1-(9H-purin-6-yl)-pyrrolidin-2-ylmethoxy]-1,2,3,4-tetrahydro-naphthalen-2-yl}acetamide]
1000 to 10000	NC(=O)C[C@@H](N)C(=O)Nc1ccc2cccc(OC[C@H]3CCCN3c3ncnc4[nH]cnc34)c2c1 [A177, (R)-2-Amino-N1-{8-[(R)-1-(9H-purin-6-yl)-pyrrolidin-2-ylmethoxy]naphthalen-2-yl}succinamide]
1000 to 10000	c1ccc2c(NCCCN3CCOCC3)ncc(OC[C@H]3CCCN3c3ncnc4[nH]cnc34)c2c1 [A178, (3-Morpholin-4-ylpropyl)-{4-[(R)-1-(9H-purin-6-yl)pyrrolidin-2-ylmethoxy]isoquinolin-1-yl}amine]
10 to 1000	CNC(=O)CC1CCc2c(OC[C@H]3CCCN3c3ncnc4[nH]cnc34)cccc2C1=O (stereo partly drawn) [A179, N-Methyl-2-{1-oxo-5-[(R)-1-(9H-purin-6-yl)-pyrrolidin-2-ylmethoxy]-1,2,3,4-tetrahydro-naphthalen-2-yl}acetamide]
10 to 1000	O=C(CC1CCc2c(OC[C@H]3CCCN3c3ncnc4[nH]cnc34)cccc2C1=O)NCCO (stereo partly drawn) [A180, N-(2-Hydroxyethyl)-2-{1-oxo-5-[(R)-1-(9H-purin-6-yl)pyrrolidin-2-ylmethoxy]-1,2,3,4-tetrahydro-naphthalen-2-yl}acetamide]
10 to 1000	CN(C)CCNc1ncc(OC[C@H]2CCCN2c2ncnc3[nH]cnc23)c2ccccc12 [A181, N,N-Dimethyl-N′-{4-[(R)-1-(9H-purin-6-yl)-pyrrolidin-2-ylmethoxy]isoquinolin-1-yl}ethane-1,2-diamine]
10 to 1000	CN(C)CCCNc1ncc(OC[C@H]2CCCN2c2ncnc3[nH]cnc23)c2ccccc12 [A182]
1000 to 10000	O=C1OCCC1CCOc1ccc2cccc(OC[C@H]3CCCN3c3ncnc4[nH]cnc34)c2c1 (stereo partly drawn) [A186, 3-(2-{8-[(R)-1-(9H-Purin-6-yl)pyrrolidin-2-yl-methoxy]naphthalen-2-yloxy}ethyl)dihydrofuran-2-one]
10 to 1000	c1ccc2c(OC[C@H]3CCCN3c3ncnc4[nH]cnc34)cc(CNCCN3CCOCC3)nc2c1 [A191, (2-Morpholin-4-ylethyl)-{4-[(R)-1-(9H-purin-6-yl)pyrrolidin-2-ylmethoxy]quinolin-2-yl-methyl}amine]
10 to 1000	O=C1CC[C@@H](C(=O)N2CCc3cccc(OC[C@H]4CCCN4c4ncnc5[nH]cnc45)c3C2)N1 [A192, (S)-5-{8-[(R)-1-(9H-Purin-6-yl)pyrrolidin-2-yl-methoxy]-3,4-dihydro-1H-isoquinoline-2-carbonyl}pyrrolidin-2-one]
10 to 1000	NC(=O)C[C@@H](N)C(=O)N1CCc2cccc(OC[C@H]3CCCN3c3ncnc4[nH]cnc34)c2C1 [A194, (R)-3-Amino-4-oxo-4-{8-[(R)-1-(9H-purin-6-yl)-pyrrolidin-2-ylmethoxy]-3,4-dihydro-1H-isoquinolin-2-yl}butyramide]
10 to 1000	N[C@@H](Cc1c[nH]cn1)C(=O)N1CCc2cccc(OC[C@H]3CCCN3c3ncnc4[nH]cnc34)c2C1 [A195, (S)-2-Amino-3-(1H-imidazol-4-yl)-1-{8-[(R)-1-(9H-purin-6-yl)pyrrolidin-2-ylmethoxy]-3,4-dihydro-1H-isoquinolin-2-yl}propan-1-one]
